Where two headings read alike, the source gives them in different places.
Tests used:
PP2A = target: T1, PP2A (Homo sapiens, UniProt P67775); assay: PP2A immunoprecipitation phosphatase activity assay in drug-treated LNCaP cells; format: cell-based; conditions: for PP2A phosphatase activity: LNCaP cells, 12 h drug exposure; for PP2A expression (protein level): after drug treatment, Western blot
T1 construct: endogenous in cells; host or cells: LNCaP
Experimental: PP2A activity in drug-treated cells was determined by using a PP2A Immunoprecipitation Phosphatase Assay Kit (Millipore) according to the manufacturer's instructions. LNCaP cells were exposed to DMSO, VES, or TS-1 at the indicated concentrations in 2.5% FBS supplemented medium for 12 h, and subjected to cell lysis in a phosphate-free lysis buffer containing 20 mmol/L imidazole-HCl, pH 7.0, 2 mM EDTA, 2 mM EGTA, 2 mM AEBSF, 1 mM EDTA, 130 μM bestatin, 14 μM E-64, 1 μM leupeptin, and 0.3 μM aprotinin. The suspension was sonicated (Virtis) at 20% output for 10 sec, followed by centrifugation at 2000×g for 5 min. One-μL aliquots of the supernatants were taken for protein determination by BCA assays, and the remaining supernatants were used for phosphatase activity assays. Aliquots of cell lysates containing 400 μg of proteins were combined with 4 μg of anti-PP2Ac antibody (Millipore), to which was added PP2A assay buffer (20 mmol/L Hepes pH 7.0, 100 mM NaCl) to a final volume of 500 μL followed by 40 μL of Protein A-agarose. Mixtures were incubated at 4° C. for 2 h, and briefly centrifuged. The immunocomplexes were washed and used for the phosphatase activity assay. The amounts of PP2A in the immunocomplexes were determined semi-quantitatively by Western blotting.

[1] = test system: normal prostate epithelial cells (PrECs); assay: MTT viability assay, normal prostate epithelial cells
Experimental: (§1) LNCaP androgen-dependent (p53^+/+) and PC-3 androgen-nonresponsive (p53^−/−) prostate cancer cells were purchased from the American Type Culture Collection (Manassas, Va.), and cultured in RPMI 1640 medium containing 10% heat-inactivated FBS. […] All cell types were cultured at 37° C. in a humidified incubator containing 5% CO2. Cells in log phase growth were harvested by trypsinization for use in the MTT viability assay. LNCaP cells were plated in poly-D-lysine coated culture flasks in order to assist cell adherence to the surface. Prior to drug treatment, cells were plated in a density of 12,000 cells/cm^2 surface area in the respective culture medium for 24-48 h, followed by individual test agents in 2.5% FBS-supplemented RPMI medium.

[2] = test system: normal prostate epithelial cells (PrECs)
Experimental: as §1

T1 sequence (P67775 whole entry): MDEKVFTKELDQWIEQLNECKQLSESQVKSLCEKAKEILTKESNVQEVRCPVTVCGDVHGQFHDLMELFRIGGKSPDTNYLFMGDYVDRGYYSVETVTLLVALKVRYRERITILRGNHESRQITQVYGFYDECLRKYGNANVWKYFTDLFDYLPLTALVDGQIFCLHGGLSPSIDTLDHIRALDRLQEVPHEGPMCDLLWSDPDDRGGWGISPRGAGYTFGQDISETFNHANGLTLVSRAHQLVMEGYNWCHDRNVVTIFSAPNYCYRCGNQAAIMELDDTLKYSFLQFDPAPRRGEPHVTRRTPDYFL

Row | SMILES | PP2A phosphatase activity (PP2A) | PP2A expression (protein level) (PP2A) | antiproliferative effect on PrECs relative to malignant cells [1] | antiproliferative effect on PrECs relative to malignant cells [2]
1 | Cc1c(C)c2c(c(C)c1OC(=O)CCC(=O)O)CCC(C)(CCCC(C)CCCC(C)C)O2 (stereo not drawn) [TS-1, succinic acid mono-[2-(4,8-dimethyl-nonyl)-2,5,7,8-tetramethylchroman-6-yl]ester] | increase PP2A phosphatase activity | without affecting its expression | resistant | 
2 | Cc1c(C)c2c(c(C)c1OC(=O)CCC(=O)O)CC[C@@](C)(CCC[C@H](C)CCC[C@H](C)CCCC(C)C)O2 [VES, α-tocopheryl succinate] | increase PP2A phosphatase activity | without affecting its expression |  | resistant
